US20120135952A1, “BUTYRIC ACID SALT OF N,N-DIMETHYL IMIDOCARBON IMIDIC DIAMIDE, METHOD OF PREPARING SAME, AND PHARMACEUTICAL COMPOSITIONS AND COMBINATIONS CONTAINING SAME” (Hanall Biopharma Co., Ltd., priority 2009, published 2012)
Counter-ions that a name gives are not always drawn. Like-named read-outs stand apart in the source and are kept apart here.

Key:
[1] = tested on: Human breast cancer-derived MCF7 cells; experiment: MTT assay, cancer cell viability and growth inhibition (MCF7); conditions: for IC50: read-out: GROWTH INHIBITORY CONCENTRATION (GIC50), MCF7, 72 hours, MTT; for CELLULAR VIABILITY (%): 72 hours, relative to untreated cells
Protocol: (§1) Human breast cancer-derived MCF7 cells and lung cancer-derived A549 cells were used as a test system.
(§2) MCF7 cells and A549 cells cultured in a DMEM containing 10% fetal bovine serum were respectively dispensed at a cell density of about 5×10^3 cells/well on a 96-well plate, followed by culturing for about 24 hours.
(§3) The resulting formazane crystal was dissolved in dimethyl sulfoxide (DMSO), and absorbance of the solution was measured at 560 nm.

[2] = tested on: lung cancer-derived A549 cells; conditions: human, 72 h
Protocol: as §1, §2, §3

[3] = tested on: Human breast cancer-derived MCF7 cells; conditions: 72 h
Protocol: as §1, §2, §3

[4] = tested on: lung cancer-derived A549 cells; experiment: MTT assay, cancer cell viability and growth inhibition (A549); conditions: for IC50: read-out: GROWTH INHIBITORY CONCENTRATION (GIC50), A549, 72 hours, MTT; for CELLULAR VIABILITY (%): 72 hours, relative to untreated cells
Protocol: as §1, §2, §3

`CCCC(=O)O` [Butyric acid, butyric acid] was tested, and the IC50 [1] was 2200 µM, the “CELLULAR VIABILITY (%)” value ([2]; 2 mM) was 78.6% and the “CELLULAR VIABILITY (%)” value ([2]; 10 mM) was 28.3%. The “CELLULAR VIABILITY (%)” value ([3]; 2 mM) was 53.9%, the “CELLULAR VIABILITY (%)” value ([3]; 10 mM) was 22.3% and the IC50 [4] was 5200 µM.
For `CN(C)C(=N)N=C(N)N` [Metformin hydrochloride, metformin hydrochloride], the “CELLULAR VIABILITY (%)” value ([1]; MCF7, 2 mM, hydrochloride) was 86.5%, the “CELLULAR VIABILITY (%)” value ([1]; MCF7, 10 mM, hydrochloride) was 73.6% and the IC50 [1] was greater than 10000 µM. For the same compound, the “CELLULAR VIABILITY (%)” value ([4]; A549, 2 mM, hydrochloride) was 63.5%, the “CELLULAR VIABILITY (%)” value ([4]; A549, 10 mM, hydrochloride) was 39.6% and the IC50 [4] was 3600 µM.
`CN(C)C(=N)NC(=N)N` [Metformin butyrate, N,N-dimethyl imidodicarbonimidic diamide butyrate] was tested, and the “CELLULAR VIABILITY (%)” value ([1]; MCF7, 2 mM) was 45.5%, the “CELLULAR VIABILITY (%)” value ([1]; MCF7, 10 mM) was 19.9% and the “CELLULAR VIABILITY (%)” value ([1]; MCF7, 10 mM, listed as metformin butyrate) was “less than 20%”. The IC50 [1] was 1600 µM, the “CELLULAR VIABILITY (%)” value ([4]; A549, 2 mM) was 57.7% and the “CELLULAR VIABILITY (%)” value ([4]; A549, 10 mM) was 11.7%. For the same compound, the “CELLULAR VIABILITY (%)” value ([4]; A549, 10 mM, listed as metformin butyrate) was “less than 20%” and the IC50 [4] was 2500 µM.
